The kinase profiling compilation of Christmann-Franck et al. (2016)

How the values were obtained:
Assay in all cases: radiometric filter-binding kinase assay, Kinase HotSpot
Conditions in all cases: compound 0.5 µM; ATP 10 µM
NEK3 (human) = NEK3 (human) (UniProt P51956)
STK24 (human) = STK24 (human) (UniProt Q9Y6E0)
SGK2 (human) = SGK2 (human) (UniProt Q9HBY8)
MST1R (human) = MST1R (human) (UniProt Q04912)
STK16 (human) = STK16 (human) (UniProt O75716)
SYK (human) = SYK (human) (UniProt P43405)
NEK6 (human) = NEK6 (human) (UniProt Q9HC98)
MAP3K7 TAB1 (human) = MAP3K7 TAB1 (human) (UniProt O43318+Q15750)
KIT (human) = KIT (human) (UniProt P10721)
KIT (human), sequence (P10721 whole entry, looked up): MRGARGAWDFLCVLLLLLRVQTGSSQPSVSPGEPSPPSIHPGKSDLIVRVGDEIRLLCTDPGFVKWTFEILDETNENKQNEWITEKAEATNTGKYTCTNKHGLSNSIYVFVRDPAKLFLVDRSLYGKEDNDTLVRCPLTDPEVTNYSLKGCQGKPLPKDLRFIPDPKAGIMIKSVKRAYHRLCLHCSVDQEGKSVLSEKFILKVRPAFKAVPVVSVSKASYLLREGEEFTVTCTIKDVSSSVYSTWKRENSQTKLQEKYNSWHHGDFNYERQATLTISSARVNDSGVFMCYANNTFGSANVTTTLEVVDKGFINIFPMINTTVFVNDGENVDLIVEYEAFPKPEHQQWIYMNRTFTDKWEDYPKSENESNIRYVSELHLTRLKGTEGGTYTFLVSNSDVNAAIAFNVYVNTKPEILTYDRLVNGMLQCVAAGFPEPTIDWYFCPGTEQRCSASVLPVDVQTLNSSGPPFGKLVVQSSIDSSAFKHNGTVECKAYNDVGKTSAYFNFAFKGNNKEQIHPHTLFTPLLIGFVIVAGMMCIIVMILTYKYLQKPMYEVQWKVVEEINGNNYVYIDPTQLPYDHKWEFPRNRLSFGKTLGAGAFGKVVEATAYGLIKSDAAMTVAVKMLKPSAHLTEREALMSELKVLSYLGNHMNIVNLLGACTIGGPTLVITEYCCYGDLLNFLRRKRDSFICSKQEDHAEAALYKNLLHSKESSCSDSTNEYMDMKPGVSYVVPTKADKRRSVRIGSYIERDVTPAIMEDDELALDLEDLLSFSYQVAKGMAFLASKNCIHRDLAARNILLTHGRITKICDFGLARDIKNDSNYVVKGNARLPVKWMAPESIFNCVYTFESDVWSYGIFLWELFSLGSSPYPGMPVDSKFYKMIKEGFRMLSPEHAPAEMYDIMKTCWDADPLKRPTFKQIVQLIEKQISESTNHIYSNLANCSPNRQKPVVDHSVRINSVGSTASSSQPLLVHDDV

KDR (human) = KDR (human) (UniProt P35968)
PRKCA (human) = PRKCA (human) (UniProt P17252)
PTK2 (human) = PTK2 (human) (UniProt Q05397)
NUAK2 (human) = NUAK2 (human) (UniProt Q9H093)
DYRK1B (human) = DYRK1B (human) (UniProt Q9Y463)
FES (human) = FES (human) (UniProt P07332)
MAP4K4 (human) = MAP4K4 (human) (UniProt O95819)
HIPK2 (human) = HIPK2 (human) (UniProt Q9H2X6)
CAMKK2 (human) = CAMKK2 (human) (UniProt Q96RR4)
AKT2 (human) = AKT2 (human) (UniProt P31751)
AKT2 (human), sequence (P31751 whole entry, looked up): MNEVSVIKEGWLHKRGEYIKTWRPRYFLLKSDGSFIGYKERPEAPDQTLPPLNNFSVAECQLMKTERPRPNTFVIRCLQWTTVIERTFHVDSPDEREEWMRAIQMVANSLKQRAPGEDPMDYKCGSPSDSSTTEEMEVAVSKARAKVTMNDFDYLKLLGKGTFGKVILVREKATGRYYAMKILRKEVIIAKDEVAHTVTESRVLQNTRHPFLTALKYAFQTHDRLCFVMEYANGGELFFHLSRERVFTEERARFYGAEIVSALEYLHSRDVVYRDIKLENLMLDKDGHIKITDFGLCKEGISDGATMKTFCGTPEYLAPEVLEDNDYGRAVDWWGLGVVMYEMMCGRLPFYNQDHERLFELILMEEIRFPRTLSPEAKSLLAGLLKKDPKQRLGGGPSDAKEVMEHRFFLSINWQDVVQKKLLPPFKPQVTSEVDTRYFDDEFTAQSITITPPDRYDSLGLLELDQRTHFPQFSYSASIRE

SIK2 (human) = SIK2 (human) (UniProt Q9H0K1)
CSNK2A1 (human) = CSNK2A1 (human) (UniProt P68400)
CDK2 CCNA2 (human) = CDK2 CCNA2 (human) (UniProt P24941+P20248)
FGR (human) = FGR (human) (UniProt P09769)
PRKD1 (human) = PRKD1 (human) (UniProt Q15139)
STK4 (human) = STK4 (human) (UniProt Q13043)
EPHA8 (human) = EPHA8 (human) (UniProt P29322)
EPHA8 (human), sequence (P29322 whole entry, looked up): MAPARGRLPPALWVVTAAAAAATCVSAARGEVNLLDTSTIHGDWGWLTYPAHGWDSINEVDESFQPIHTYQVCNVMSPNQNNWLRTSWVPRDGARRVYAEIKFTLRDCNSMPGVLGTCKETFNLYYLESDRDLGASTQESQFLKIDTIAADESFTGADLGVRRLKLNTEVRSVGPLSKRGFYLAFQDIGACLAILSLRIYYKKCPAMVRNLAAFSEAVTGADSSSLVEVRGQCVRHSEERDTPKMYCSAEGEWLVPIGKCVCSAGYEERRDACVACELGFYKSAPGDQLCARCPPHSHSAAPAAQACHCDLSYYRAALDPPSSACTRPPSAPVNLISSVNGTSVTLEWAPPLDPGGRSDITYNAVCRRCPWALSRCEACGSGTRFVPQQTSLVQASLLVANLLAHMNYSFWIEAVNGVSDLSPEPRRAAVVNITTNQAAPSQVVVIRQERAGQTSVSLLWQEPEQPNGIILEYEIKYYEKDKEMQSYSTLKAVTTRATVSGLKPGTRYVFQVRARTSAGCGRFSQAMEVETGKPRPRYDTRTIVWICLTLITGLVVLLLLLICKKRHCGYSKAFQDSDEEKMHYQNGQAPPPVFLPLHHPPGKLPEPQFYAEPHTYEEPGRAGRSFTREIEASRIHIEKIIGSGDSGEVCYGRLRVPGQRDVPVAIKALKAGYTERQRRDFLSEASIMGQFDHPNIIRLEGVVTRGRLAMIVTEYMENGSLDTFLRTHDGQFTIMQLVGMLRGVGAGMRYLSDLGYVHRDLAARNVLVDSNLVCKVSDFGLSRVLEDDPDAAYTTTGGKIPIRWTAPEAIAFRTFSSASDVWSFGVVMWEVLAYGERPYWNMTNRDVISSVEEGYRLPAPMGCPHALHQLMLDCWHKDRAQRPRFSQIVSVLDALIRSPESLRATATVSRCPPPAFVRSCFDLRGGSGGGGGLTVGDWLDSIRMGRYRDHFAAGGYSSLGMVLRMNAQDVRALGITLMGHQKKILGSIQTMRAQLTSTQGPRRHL

TTK (human) = TTK (human) (UniProt P33981)
[1] = target: TYK2 JH1 catalytic (human) (UniProt P29597)
TAOK3 (human) = TAOK3 (human) (UniProt Q9H2K8)
TAOK3 (human), sequence (Q9H2K8 whole entry, looked up): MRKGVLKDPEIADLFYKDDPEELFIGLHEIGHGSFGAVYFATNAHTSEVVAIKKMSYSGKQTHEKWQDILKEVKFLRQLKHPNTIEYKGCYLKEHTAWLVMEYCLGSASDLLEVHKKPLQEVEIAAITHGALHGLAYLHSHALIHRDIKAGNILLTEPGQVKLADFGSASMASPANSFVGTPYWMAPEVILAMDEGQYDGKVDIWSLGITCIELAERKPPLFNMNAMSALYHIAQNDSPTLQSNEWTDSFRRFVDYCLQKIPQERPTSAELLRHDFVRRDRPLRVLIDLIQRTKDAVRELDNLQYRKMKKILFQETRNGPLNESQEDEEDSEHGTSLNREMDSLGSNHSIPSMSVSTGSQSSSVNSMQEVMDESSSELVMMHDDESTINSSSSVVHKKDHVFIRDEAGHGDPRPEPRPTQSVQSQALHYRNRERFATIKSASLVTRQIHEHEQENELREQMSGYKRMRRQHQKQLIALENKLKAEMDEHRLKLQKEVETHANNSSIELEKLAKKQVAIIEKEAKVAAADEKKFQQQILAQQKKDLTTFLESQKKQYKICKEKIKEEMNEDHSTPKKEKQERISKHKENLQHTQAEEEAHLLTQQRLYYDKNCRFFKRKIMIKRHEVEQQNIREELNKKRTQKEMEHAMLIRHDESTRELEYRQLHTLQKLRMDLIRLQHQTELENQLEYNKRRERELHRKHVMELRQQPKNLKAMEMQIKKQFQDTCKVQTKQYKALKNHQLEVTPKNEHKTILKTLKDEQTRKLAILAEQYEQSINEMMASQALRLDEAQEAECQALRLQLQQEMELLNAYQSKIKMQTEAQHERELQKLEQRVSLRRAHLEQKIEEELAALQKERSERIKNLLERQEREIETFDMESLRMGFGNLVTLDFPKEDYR

MAPKAPK2 (human) = MAPKAPK2 (human) (UniProt P49137)
MAPKAPK2 (human), sequence (P49137 whole entry, looked up): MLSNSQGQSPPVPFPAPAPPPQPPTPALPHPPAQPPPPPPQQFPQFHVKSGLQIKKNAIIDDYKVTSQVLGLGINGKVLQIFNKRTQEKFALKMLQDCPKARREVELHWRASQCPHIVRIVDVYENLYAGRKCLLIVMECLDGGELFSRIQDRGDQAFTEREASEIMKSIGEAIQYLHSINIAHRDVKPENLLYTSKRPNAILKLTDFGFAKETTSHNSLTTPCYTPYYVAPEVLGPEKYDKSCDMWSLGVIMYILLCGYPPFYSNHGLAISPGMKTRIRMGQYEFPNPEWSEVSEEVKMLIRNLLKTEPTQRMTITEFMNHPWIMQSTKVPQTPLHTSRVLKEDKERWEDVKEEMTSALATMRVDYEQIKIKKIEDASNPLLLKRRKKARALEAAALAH

PBK (human) = PBK (human) (UniProt Q96KB5)
IGF1R (human) = IGF1R (human) (UniProt P08069)
FGFR3 (human) = FGFR3 (human) (UniProt P22607)
OXSR1 (human) = OXSR1 (human) (UniProt O95747)
ROCK1 (human) = ROCK1 (human) (UniProt Q13464)
PIM2 (human) = PIM2 (human) (UniProt Q9P1W9)
ABL2 (human) = ABL2 (human) (UniProt P42684)
ACVR1 (human) = ACVR1 (human) (UniProt Q04771)
CLK4 (human) = CLK4 (human) (UniProt Q9HAZ1)
CLK4 (human), sequence (Q9HAZ1 whole entry, looked up): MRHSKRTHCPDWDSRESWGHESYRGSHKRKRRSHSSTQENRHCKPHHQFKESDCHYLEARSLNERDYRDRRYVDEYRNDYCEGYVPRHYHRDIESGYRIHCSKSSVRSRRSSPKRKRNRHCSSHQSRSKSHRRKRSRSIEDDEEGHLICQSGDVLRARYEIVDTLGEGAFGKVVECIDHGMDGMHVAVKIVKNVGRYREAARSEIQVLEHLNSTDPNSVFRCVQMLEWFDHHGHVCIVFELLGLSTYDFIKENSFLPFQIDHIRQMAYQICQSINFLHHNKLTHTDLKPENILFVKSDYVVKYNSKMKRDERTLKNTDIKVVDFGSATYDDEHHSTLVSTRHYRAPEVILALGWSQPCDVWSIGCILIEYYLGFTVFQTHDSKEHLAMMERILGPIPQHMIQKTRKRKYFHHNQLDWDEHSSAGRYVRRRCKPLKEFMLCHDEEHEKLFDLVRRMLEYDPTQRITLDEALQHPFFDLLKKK

RIPK2 (human) = RIPK2 (human) (UniProt O43353)
PDGFRB (human) = PDGFRB (human) (UniProt P09619)

NEK3 (human), sequence (P51956 whole entry, looked up): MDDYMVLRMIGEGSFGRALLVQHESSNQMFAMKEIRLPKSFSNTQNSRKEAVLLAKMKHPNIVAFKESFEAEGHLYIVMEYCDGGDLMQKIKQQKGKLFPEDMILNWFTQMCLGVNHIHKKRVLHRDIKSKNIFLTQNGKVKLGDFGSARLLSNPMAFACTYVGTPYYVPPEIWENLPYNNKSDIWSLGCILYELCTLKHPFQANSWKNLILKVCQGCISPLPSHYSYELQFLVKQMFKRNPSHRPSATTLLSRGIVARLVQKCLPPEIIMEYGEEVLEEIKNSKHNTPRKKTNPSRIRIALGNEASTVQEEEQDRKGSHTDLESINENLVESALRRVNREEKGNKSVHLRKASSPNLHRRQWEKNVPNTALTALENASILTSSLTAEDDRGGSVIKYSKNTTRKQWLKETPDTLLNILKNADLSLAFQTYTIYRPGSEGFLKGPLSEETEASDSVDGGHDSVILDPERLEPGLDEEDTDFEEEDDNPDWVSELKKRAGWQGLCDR
STK16 (human), sequence (O75716 whole entry, looked up): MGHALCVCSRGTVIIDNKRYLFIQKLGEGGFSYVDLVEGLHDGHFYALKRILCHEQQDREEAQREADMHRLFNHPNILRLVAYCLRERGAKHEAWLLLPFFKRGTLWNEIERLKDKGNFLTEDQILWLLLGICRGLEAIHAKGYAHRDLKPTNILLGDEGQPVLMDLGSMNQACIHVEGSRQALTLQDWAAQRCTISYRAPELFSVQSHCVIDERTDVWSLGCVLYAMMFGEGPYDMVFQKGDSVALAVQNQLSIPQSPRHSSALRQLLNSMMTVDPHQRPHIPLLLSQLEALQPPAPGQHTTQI

SMILES	residual activity (STK24 (human)) [%]	residual activity (SGK2 (human)) [%]	residual activity (MST1R (human)) [%]	residual activity (STK16 (human)) [%]	residual activity (SYK (human)) [%]	residual activity (NEK6 (human)) [%]	residual activity (MAP3K7 TAB1 (human)) [%]	residual activity (KIT (human)) [%]	residual activity (KDR (human)) [%]	residual activity (PRKCA (human)) [%]	residual activity (PTK2 (human)) [%]	residual activity (NUAK2 (human)) [%]	residual activity (DYRK1B (human)) [%]	residual activity (MAP4K4 (human)) [%]	residual activity (CAMKK2 (human)) [%]	residual activity (SIK2 (human)) [%]	residual activity (CSNK2A1 (human)) [%]	residual activity (FGR (human)) [%]	residual activity (PRKD1 (human)) [%]	residual activity (STK4 (human)) [%]	other results
c1ccc(-c2n[nH]c3c2oc2ccccc23)cc1	75.3	93	87.4	89.1	97.7	99	104	38	107	92.9	94.7	95.2	101	36.1	87.5	98.3	87.2	116	79.2	99.8	residual activity (NEK3 (human)): 98.9%; residual activity (FES (human)): 114%; residual activity (HIPK2 (human)): 99.6%; residual activity (AKT2 (human)): 112%; residual activity (CDK2 CCNA2 (human)): 88.1%; residual activity (EPHA8 (human)): 102%; residual activity (TTK (human)): 95.7%; residual activity [1]: 89.2%; residual activity (TAOK3 (human)): 94.8%; residual activity (MAPKAPK2 (human)): 99.1%; residual activity (PBK (human)): 94.8%; residual activity (IGF1R (human)): 98.1%; residual activity (FGFR3 (human)): 97.5%; residual activity (OXSR1 (human)): 101%; residual activity (ROCK1 (human)): 99.1%; residual activity (PIM2 (human)): 104%; residual activity (ABL2 (human)): 86.7%; residual activity (ACVR1 (human)): 99.4%; residual activity (CLK4 (human)): 98.9%; residual activity (RIPK2 (human)): 78.8%
COc1ccc(COc2ccc(Cc3cnc(N)nc3N)cc2OC)cc1	93.5	97.5	104	106	89	99.4	97.9	106	109	95.9	95.5	98.1	104	99	103	98.6	105	92.3	95.2	106	residual activity (NEK3 (human)): 98.1%; residual activity (HIPK2 (human)): 103%; residual activity (AKT2 (human)): 102%; residual activity (TTK (human)): 105%; residual activity [1]: 97.6%; residual activity (TAOK3 (human)): 102%; residual activity (MAPKAPK2 (human)): 103%; residual activity (PBK (human)): 99.4%; residual activity (IGF1R (human)): 123%; residual activity (FGFR3 (human)): 105%; residual activity (OXSR1 (human)): 103%; residual activity (ROCK1 (human)): 100%; residual activity (PIM2 (human)): 107%; residual activity (PDGFRB (human)): 98.2%; residual activity (ABL2 (human)): 107%; residual activity (ACVR1 (human)): 100%; residual activity (CLK4 (human)): 86.5%; residual activity (RIPK2 (human)): 81.9%
O=c1cc(N2CCOCC2)oc2c1ccc1ccccc12	103	102	103	99	93	92.5	98.3	105	86.8	89.2	108	120	90.5	89.3	104	126	70.9	94.6	102	99.5	residual activity (NEK3 (human)): 111%; residual activity (FES (human)): 100%; residual activity (HIPK2 (human)): 105%; residual activity (AKT2 (human)): 98.9%; residual activity (CDK2 CCNA2 (human)): 100%; residual activity (EPHA8 (human)): 101%; residual activity (TTK (human)): 103%; residual activity [1]: 111%; residual activity (TAOK3 (human)): 98.7%; residual activity (MAPKAPK2 (human)): 98.3%; residual activity (PBK (human)): 103%; residual activity (FGFR3 (human)): 98.2%; residual activity (OXSR1 (human)): 108%; residual activity (ROCK1 (human)): 94.2%; residual activity (PIM2 (human)): 78.8%; residual activity (PDGFRB (human)): 111%; residual activity (ABL2 (human)): 101%; residual activity (ACVR1 (human)): 107%; residual activity (CLK4 (human)): 101%; residual activity (RIPK2 (human)): 104%
CC#CC(=O)Nc1cc2c(Nc3ccc(F)c(Cl)c3)ncnc2cn1	107	98.3	104	104	95.4	97.5	100	98.5	98.2	101	102	95.4	103	110	103	81.3	90.9	89.6	98.7	98.7	residual activity (NEK3 (human)): 76.2%; residual activity (FES (human)): 99.4%; residual activity (HIPK2 (human)): 101%; residual activity (CDK2 CCNA2 (human)): 97.8%; residual activity (EPHA8 (human)): 100%; residual activity (TTK (human)): 104%; residual activity [1]: 106%; residual activity (TAOK3 (human)): 110%; residual activity (MAPKAPK2 (human)): 104%; residual activity (PBK (human)): 99.9%; residual activity (IGF1R (human)): 100%; residual activity (FGFR3 (human)): 108%; residual activity (OXSR1 (human)): 109%; residual activity (ROCK1 (human)): 96.2%; residual activity (PIM2 (human)): 111%; residual activity (PDGFRB (human)): 103%; residual activity (ABL2 (human)): 89.4%; residual activity (ACVR1 (human)): 105%; residual activity (CLK4 (human)): 90.4%; residual activity (RIPK2 (human)): 38.7%
O=S(=O)(c1cccc2cnccc12)N1CCCNCC1	70.2	91.9	92.7	91.7	84.3	97.6	106	96.7	86.9	94.8	93.9	83.5	96.3	44.1	95.9	97.7	94.9	90.5	65.1	94.8	residual activity (FES (human)): 121%; residual activity (AKT2 (human)): 115%; residual activity (EPHA8 (human)): 106%; residual activity (TTK (human)): 99.1%; residual activity [1]: 81.6%; residual activity (TAOK3 (human)): 97.3%; residual activity (MAPKAPK2 (human)): 101%; residual activity (PBK (human)): 100%; residual activity (IGF1R (human)): 112%; residual activity (FGFR3 (human)): 94.4%; residual activity (ROCK1 (human)): 60.2%; residual activity (PIM2 (human)): 93.2%; residual activity (PDGFRB (human)): 102%; residual activity (ABL2 (human)): 87.6%; residual activity (ACVR1 (human)): 96.5%; residual activity (CLK4 (human)): 97.1%; residual activity (RIPK2 (human)): 86.4%
